{"source": "patent US7122523B2", "about": "“Methods for inhibiting tumor cell proliferation” (University of Southern California, priority 2001, dated 2006)", "test": "Test of effectiveness of AII fragments (test not specified)", "conditions": "repeated tests", "note": "“Also recorded” adds a separate entry of the source."}
{"substance": "Tyr-Ile-His-Pro-Phe (YIHPF) [AII(4-8)]", "values": [{"measurement": "effectiveness as active agent", "result": "not to be effective; also recorded: ineffective"}]}
